Results reported in US4125531A, “2-Substituted-1-azabicyclo[2.2.2]octanes” (G. D. Searle & Co., priority 1977, dated 1978).
Structures can show the parent of a compound that is named as a salt. Where two headings read alike, the source gives them in different places.

Legend:
[1] = test system: gastronintestinal motility; assay: Mouse Cecal Test (inhibition of gastrointestinal motility, charcoal in cecum); assay type: in vivo, mouse (male Charles River mice); settings: po, read-out: ED50 ± S.E. (median effective dose), Mouse Cecal Test
Description: The compounds of the present invention are useful in consequence of their valuable pharmacological properties. They are, for example, potent anti-diarrheal agents as evidenced by their ability to inhibit gastronintestinal motility as set out in the following tests:
The method used for this assay is a modification of the techniques previously described by Macht and BarbaGose, J. Amer. Pharm. Ass., 20, 558 (1931), and Janssen and Jageneau, J. Pharm. Pharmacol., 9, 381 (1957). Details are as follows:
A group of six, male Charles River mice weighing 20-25 g. which have been previously fasted for 24 hours are pretreated with the test compounds administered orally as a solution in water or suspended in 0.5% methyl cellulose. A constant volume of 10 ml./kg. is employed. Thirty minutes following administration of the test compounds, the animals are given a single oral dose of charcoal which consists of 0.2 ml. per mouse of 10% charcoal suspended in 1.0% methyl cellulose. Three and a half hours after charcoal administration, the animals are sacrificed and the cecum examined for the absence or presence of charcoal on an all-or-none basis.
The median effective dose (ED50) is then calculated for each compound using the logistic method of Berkson (1953).
The median effective dose ± standard Error ED50 ± SE) for the following representative compounds of the present invention in the Mouse Cecal Test are […]

[2] = test system: castor oil-induced diarrhea; assay: Castor Oil-Induced Diarrhea in the Rat; assay type: in vivo, rat (adult Charles River male rats); settings: po, read-out: ED50 ± S.E. (median effective dose) at 2 hours past castor oil administration
Description: Castor Oil-Induced Diarrhea in the Rat
Adult Charles River male rats are fasted in community cages for 24 hours prior to the test, with free access to water. The test compound is then administered intragastrically (suspended on 0.5% methyl cellulose) one hour prior to the intragastric adminstration of a dose of 1.0 ml. castor oil per rat. The rats are then observed for the presence or absence of diarrhea at hourly intervals for up to 8 hours past the castor oil adminstration. Using the method of Berkson (1953), the median effective dose (ED50) values are calculated at each hourly interval for the test compound.
The median effective dose at 2 hours past the castor oil adminstration for the following representative compounds of the present invention in the castor oil-induced diarrhea in the Rat test are: […]

[3] = IG, test compound 30 minutes before charcoal, cecum examined 3.5 hours after charcoal
[4] = IG, test compound one hour before 1.0 ml castor oil, 2 hours past castor oil

| Compound | ED50 [1, 3] | ED50 [2, 4] | ED50 [1] | ED50 ([2]; 2 h) |
| --- | --- | --- | --- | --- |
| C=CCC(CC1CC2CCN1CC2)(c1ccccc1)c1ccccc1 (centres unmarked) [2-(2,2-diphenyl-4-pentenyl)-1-azabicyclo[2.2.2]octane] | 1.82 ± 0.45 mg/kg | 1.13 ± 0.18 mg/kg | – | – |
| CCCCCC(CC1CC2CCN1CC2)(c1ccccc1)c1ccccc1.O=C(O)/C=C\C(=O)O (centres unmarked) [2-(2,2-diphenylheptyl)-1-azabicyclo[2.2.2]octane maleate] | – | – | 5.84 ± 1.94 mg/kg | 10.2 ± 1.43 mg/kg |
| CCCCC(CC1CC2CCN1CC2)(c1ccccc1)c1ccccc1 (centres unmarked) [2-(2,2-diphenylhexyl)-1-azabicyclo[2.2.2]octane] | 8.74 ± 3.95 mg/kg | 4.57 ± 0.21 mg/kg | – | – |
| CCCCCCC(CC1CC2CCN1CC2)(c1ccccc1)c1ccccc1.O=C(O)/C=C\C(=O)O (centres unmarked) [2-(2,2-diphenyloctyl)-1-azabicyclo[2.2.2]octane maleate] | – | – | 20.7 ± 12.3 mg/kg | – |
| CC(CC1CC2CCN1CC2)(c1ccccc1)c1ccccc1 (centres unmarked) [2-(2,2-diphenylpropyl)-1-azabicyclo[2.2.2]octane] | 43.1 ± 15.5 mg/kg | – | – | – |
| CC(C)=CCC(CC1CC2CCN1CC2)(c1ccccc1)c1ccccc1 (centres unmarked) [2-(5-methyl-2,2-diphenylhex-4-enyl)-1-azabicyclo[2.2.2]octane] | 1.45 ± 0.66 mg/kg | 1.74 ± 0.53 mg/kg | – | – |
| CCOC(=O)C1(c2ccccc2)CCN(CCC(C#N)(c2ccccc2)c2ccccc2)CC1 [Diphenoxylate . HCl, reference compound] | – | – | 3.12 ± 1.29 mg/kg | – |
